# According to PMC6478161 (Biochemistry, 2016):
# Values joined by “and” are separate entries in the source; they are usually repeats but may differ in a detail not shown here. Equal entries are not always repeated.
# B1: IIA^Glc, phosphotransferase protein of the glucose-specific phosphoenolpyruvate:carbohydrate phosphotransferase system (natural protein, E. coli, UniProt P69783 1-169, looked up)
# chain: MGLFDKLKSLVSDDKKDTGTIEIIAPLSGEIVNIEDVPDVVFAEKIVGDGIAIKPTGNKMVAPVDGTIGKIFETNHAFSIESDSGVELFVHFGIDTVELKGEGFKRIAEEGQRVKVGDTVIEFDLPLLEEKAKSTLTPVVISNMDEIKELIKLSGSVTVGETPVIRIKK
# Key:
# WT LacY [1] = target: WT LacY (Escherichia coli, UniProt P02920); test: ITC, sugar; assay type: binding
# WT:Nb-9036 = WT:Nb-9036 (Escherichia coli, UniProt P02920); test: ITC, α-NPG binding to WT LacY:Nb-9036 complex
# Mutant:Nb-9036 = Mutant:Nb-9036 (Escherichia coli, UniProt P02920, G262W/G46W); test: ITC, α-NPG binding to double-Trp mutant:Nb-9036 complex
# WT:Nb-9065 = WT:Nb-9065 (Escherichia coli, UniProt P02920); test: ITC, α-NPG binding to WT LacY:Nb-9065 complex
# Mutant:Nb-9065 = Mutant:Nb-9065 (Escherichia coli, UniProt P02920, G262W/G46W); test: ITC, α-NPG binding to double-Trp mutant:Nb-9065 complex
# [2] = target: Double-Trp mutant (G46W/G262W LacY) (Escherichia coli, UniProt P02920, G262W/G46W); test: ITC, α-NPG binding to double-Trp mutant LacY; settings: ITC at 25 °C; no Nb
# WT LacY [3] = target: T1, WT LacY (Escherichia coli, UniProt P02920); settings: cytoplasmic face of the WT; cited from earlier work
# T1 sequence (P02920 whole entry, looked up): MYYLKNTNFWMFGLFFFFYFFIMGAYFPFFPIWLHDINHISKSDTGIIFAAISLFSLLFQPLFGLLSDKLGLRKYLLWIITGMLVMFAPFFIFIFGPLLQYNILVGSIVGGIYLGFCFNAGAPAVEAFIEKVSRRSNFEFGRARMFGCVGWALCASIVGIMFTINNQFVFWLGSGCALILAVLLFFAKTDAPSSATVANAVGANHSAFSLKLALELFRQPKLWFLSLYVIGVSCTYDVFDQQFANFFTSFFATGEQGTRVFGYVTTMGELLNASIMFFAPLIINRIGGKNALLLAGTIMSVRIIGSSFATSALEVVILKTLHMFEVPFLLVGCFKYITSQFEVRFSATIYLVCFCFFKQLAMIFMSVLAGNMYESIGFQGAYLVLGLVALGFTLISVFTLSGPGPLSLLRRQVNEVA
# double-Trp mutant = settings: cited from earlier work
# WT LacY:Nb-9036 = target: T2, WT LacY:Nb-9036 (Escherichia coli, UniProt P02920); test: ITC, IIA^Glc titration of WT LacY:Nb-9036 complex; assay type: binding; settings: WT pre-equilibrated with Nb-9036; 10 mM melibiose
# T2 sequence (P02920 whole entry, looked up): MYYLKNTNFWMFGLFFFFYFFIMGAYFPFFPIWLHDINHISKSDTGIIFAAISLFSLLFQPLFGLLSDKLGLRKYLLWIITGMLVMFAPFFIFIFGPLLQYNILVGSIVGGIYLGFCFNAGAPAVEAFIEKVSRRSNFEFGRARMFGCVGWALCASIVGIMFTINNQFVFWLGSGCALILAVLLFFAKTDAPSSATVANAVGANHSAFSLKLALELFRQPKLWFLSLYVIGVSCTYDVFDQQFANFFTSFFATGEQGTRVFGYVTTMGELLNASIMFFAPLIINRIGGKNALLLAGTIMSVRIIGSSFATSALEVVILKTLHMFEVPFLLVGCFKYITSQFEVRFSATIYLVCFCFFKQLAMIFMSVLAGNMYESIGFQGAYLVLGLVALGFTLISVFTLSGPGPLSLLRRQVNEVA
# WT LacY:Nb-9065 = target: T3, WT LacY:Nb-9065 (Escherichia coli, UniProt P02920); settings: WT pre-equilibrated with Nb-9065; 10 mM melibiose
# T3 sequence (P02920 whole entry, looked up): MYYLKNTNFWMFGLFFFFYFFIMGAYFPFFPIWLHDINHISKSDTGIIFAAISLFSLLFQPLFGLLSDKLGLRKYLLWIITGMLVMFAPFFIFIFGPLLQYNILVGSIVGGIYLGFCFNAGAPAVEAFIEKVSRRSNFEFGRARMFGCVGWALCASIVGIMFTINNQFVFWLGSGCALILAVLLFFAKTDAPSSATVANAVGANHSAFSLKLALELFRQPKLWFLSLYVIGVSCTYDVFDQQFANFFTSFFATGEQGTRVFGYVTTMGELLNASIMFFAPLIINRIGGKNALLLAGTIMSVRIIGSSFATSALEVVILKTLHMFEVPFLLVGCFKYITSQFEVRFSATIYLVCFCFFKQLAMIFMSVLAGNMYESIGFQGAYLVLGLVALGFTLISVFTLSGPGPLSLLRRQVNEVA
# [4] = target: T4, lactose permease of Escherichia coli (LacY), wild type (Escherichia coli, UniProt P02920 1-417); test: ITC
# T4 sequence: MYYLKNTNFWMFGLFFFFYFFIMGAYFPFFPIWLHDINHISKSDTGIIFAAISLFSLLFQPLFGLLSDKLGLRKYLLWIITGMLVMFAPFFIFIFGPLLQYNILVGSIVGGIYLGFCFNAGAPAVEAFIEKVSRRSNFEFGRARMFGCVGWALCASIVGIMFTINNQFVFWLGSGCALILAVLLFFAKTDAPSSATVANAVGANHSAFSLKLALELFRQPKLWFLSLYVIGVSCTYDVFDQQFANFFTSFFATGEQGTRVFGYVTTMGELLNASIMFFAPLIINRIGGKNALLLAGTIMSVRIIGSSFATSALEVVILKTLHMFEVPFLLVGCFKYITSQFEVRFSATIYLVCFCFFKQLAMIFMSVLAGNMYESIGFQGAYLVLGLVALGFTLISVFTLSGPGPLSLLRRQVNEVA
# [5] = ITC at 25 °C, WT pre-incubated with Nb-9036
# [6] = difference in the absence and presence of Nb-9036, WT
# [7] = difference in the absence and presence of Nb-9036, WT, listed as galactoside
# [8] = ITC at 25 °C, mutant pre-incubated with Nb-9036
# [9] = difference in the absence and presence of Nb-9036, mutant
# [10] = difference in the absence and presence of Nb-9036, mutant, listed as galactoside
# [11] = ITC at 25 °C, WT pre-incubated with Nb-9065
# [12] = difference in the absence and presence of Nb-9065, WT
# [13] = ITC at 25 °C, mutant pre-incubated with Nb-9065
# [14] = difference in the absence and presence of Nb-9065, mutant
# Mutant:Nb-9065, sequence (P02920 whole entry G46W/G262W): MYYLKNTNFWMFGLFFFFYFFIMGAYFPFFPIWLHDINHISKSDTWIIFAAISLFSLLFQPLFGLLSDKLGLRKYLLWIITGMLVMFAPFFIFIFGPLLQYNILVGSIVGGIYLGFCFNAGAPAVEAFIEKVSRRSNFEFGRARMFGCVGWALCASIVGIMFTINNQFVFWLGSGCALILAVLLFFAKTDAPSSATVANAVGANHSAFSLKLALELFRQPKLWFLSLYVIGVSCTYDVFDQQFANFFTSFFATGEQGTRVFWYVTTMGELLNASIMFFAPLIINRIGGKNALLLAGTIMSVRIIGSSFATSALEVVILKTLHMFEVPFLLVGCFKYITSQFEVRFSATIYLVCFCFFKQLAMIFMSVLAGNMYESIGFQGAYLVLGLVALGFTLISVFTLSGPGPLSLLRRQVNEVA
# Double-Trp mutant (G46W/G262W LacY), sequence (P02920 whole entry G46W/G262W): as above
# Mutant:Nb-9036, sequence (P02920 whole entry G46W/G262W): as above
molecule,measurement,setting,value
O=[N+]([O-])c1ccc(O[C@H]2O[C@H](CO)[C@@H](O)[C@H](O)[C@H]2O)cc1 [nitrophenyl-α-D-glucopyranoside],titration thermogram (control),"WT LacY [1]; ITC, 1 mM injected into WT LacY","small, relatively flat thermogram"
"O=[N+]([O-])c1ccc(O[C@H]2O[C@H](CO)[C@H](O)[C@H](O)[C@H]2O)cc1 [α-NPG, p-nitrophenyl-α-D-galactopyranoside]",-TΔS,WT:Nb-9036; [5],17.2 (0.5) kJ/mol
same,Kd,WT:Nb-9036; [5],~300 nM and 300 nM
same,N (stoichiometry),WT:Nb-9036; [5],0.5 (0.1)
same,ΔG,WT:Nb-9036; [5],−37.1 (0.6) kJ/mol
same,ΔH,WT:Nb-9036; [5],−54.3 (1.1) kJ/mol
same,fold decrease in Kd (increase in affinity) by Nb,WT:Nb-9036; Nb-9036:WT complex versus WT alone,~96 fold
same,ΔΔG,WT:Nb-9036; [6],[−11.2 ^**] kJ/mol
same,ΔΔH,WT:Nb-9036; [6],[−38.7 ^**] kJ/mol
same,−TΔΔS,WT:Nb-9036; [6],[27.5 ^*] kJ/mol
same,ΔΔH,WT:Nb-9036; [7],-38.7 kJ/mol
same,−TΔΔS,WT:Nb-9036; [7],27.5 kJ/mol
same,-TΔS,Mutant:Nb-9036; [8],34.2 (2.9) kJ/mol
same,Kd,Mutant:Nb-9036; [8],~300 nM and 300 nM
same,N (stoichiometry),Mutant:Nb-9036; [8],0.6 (0.0)
same,ΔG,Mutant:Nb-9036; [8],−37.5 (0.4) kJ/mol
same,ΔH,Mutant:Nb-9036; [8],−71.7 (2.5) kJ/mol
same,fold decrease in Kd (increase in affinity) by Nb,Mutant:Nb-9036; Nb-9036:mutant complex versus mutant alone,~19 fold
same,ΔΔG,Mutant:Nb-9036; [9],[−7.2 ^**] kJ/mol
same,ΔΔH,Mutant:Nb-9036; [9],[−29.6 ^**] kJ/mol
same,−TΔΔS,Mutant:Nb-9036; [9],[22.4 ^*] kJ/mol
same,ΔΔH,Mutant:Nb-9036; [10],-29.6 kJ/mol
same,−TΔΔS,Mutant:Nb-9036; [10],22.4 kJ/mol
same,-TΔS,WT:Nb-9065; [11],21.0 (1.7) kJ/mol
same,Kd,WT:Nb-9065; [11],5.7 µM
same,N (stoichiometry),WT:Nb-9065; [11],0.5 (0.0)
same,ΔG,WT:Nb-9065; [11],−30.0 (0.1) kJ/mol
same,ΔH,WT:Nb-9065; [11],−51.0 (1.8) kJ/mol
same,fold decrease in Kd by Nb,WT:Nb-9065; Nb-9065:WT complex versus WT alone,4 fold
same,ΔΔG,WT:Nb-9065; [12],[−4.1 ^**] kJ/mol
same,ΔΔH,WT:Nb-9065; [12],[−35.4 ^*] kJ/mol
same,−TΔΔS,WT:Nb-9065; [12],[31.3 ^*] kJ/mol
same,-TΔS,Mutant:Nb-9065; [13],12.43 (0.9) kJ/mol
same,Kd,Mutant:Nb-9065; [13],7.1 µM
same,N (stoichiometry),Mutant:Nb-9065; [13],0.4 (0.0)
same,ΔG,Mutant:Nb-9065; [13],−29.4 (0.2) kJ/mol
same,ΔH,Mutant:Nb-9065; [13],−41.8 (1.05) kJ/mol
same,change in Kd by Nb,Mutant:Nb-9065; Nb-9065:mutant complex versus mutant alone,no detectable change
same,ΔΔG,Mutant:Nb-9065; [14],[0.9^ns] kJ/mol
same,ΔΔH,Mutant:Nb-9065; [14],[0.3^ns] kJ/mol
same,−TΔΔS,Mutant:Nb-9065; [14],[0.6^ns] kJ/mol
same,-TΔS,[2],11.8 (0.3) kJ/mol
same,Kd,[2],5 µM
same,N (stoichiometry),[2],0.5 (0.0)
same,ΔG,[2],−30.3 (0.3) kJ/mol
same,ΔH,[2],−42.1 (0.0) kJ/mol
same,-TΔS,"WT LacY [1]; ITC at 25 °C, no Nb",−10.3 (3.6) kJ/mol
same,Kd,"WT LacY [1]; ITC at 25 °C, no Nb",28.8 µM
same,N (stoichiometry),"WT LacY [1]; ITC at 25 °C, no Nb",0.6 (0.1)
same,ΔG,"WT LacY [1]; ITC at 25 °C, no Nb",−25.9 (0.2) kJ/mol
same,ΔH,"WT LacY [1]; ITC at 25 °C, no Nb",−15.6 (3.4) kJ/mol
"IIA^Glc: a phosphotransferase protein of the glucose-specific phosphoenolpyruvate:carbohydrate phosphotransferase system (E. coli, unphosphorylated)",heat of IIA^Glc binding,WT LacY [3],endothermic
same,IIA^Glc binding,double-Trp mutant,does not bind
same,IIA^Glc binding (thermogram),WT LacY:Nb-9036,no IIA^Glc binding
same,IIA^Glc binding (thermogram),WT LacY:Nb-9065,no IIA^Glc binding
B1,binding result,[4],binds
